SMILES strings stand for the structures.

In one assay the target is Mcl-1 protein (UniProtKB primary accession number: Q07820) (Homo sapiens, UniProt Q07820). Briefly: Inhibition of Mcl-1 by fluorescence polarisation, Method 1. The class given is binding. Particulars: fluorescence polarisation test; Method 1, or Method 2 where the value is underlined (underlining not visible); read-out: IC50 (M) Mcl-1 FP. Summed up: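 Fluorescence polarisation competition with an 11-point compound dilution series (final DMSO 5%). Mcl-1 protein at 5 nM and fluorescein-labelled ligand at 1 nM (final) in 10 mM HEPES, 150 mM NaCl, 0.05% Tween 20, pH 7.4.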
Chain of Mcl-1 protein (Q07820 whole entry): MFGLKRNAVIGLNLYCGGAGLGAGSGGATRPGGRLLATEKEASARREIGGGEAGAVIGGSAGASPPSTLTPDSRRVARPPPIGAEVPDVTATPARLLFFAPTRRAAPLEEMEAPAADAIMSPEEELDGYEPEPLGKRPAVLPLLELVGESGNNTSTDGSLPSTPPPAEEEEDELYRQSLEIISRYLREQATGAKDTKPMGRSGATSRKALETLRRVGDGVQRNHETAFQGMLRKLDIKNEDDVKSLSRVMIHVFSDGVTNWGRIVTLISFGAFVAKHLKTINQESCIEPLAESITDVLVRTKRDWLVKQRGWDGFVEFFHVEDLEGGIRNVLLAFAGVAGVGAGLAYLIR
(In general: Polarisation of emitted light reports the rotation of a fluorescent probe.)
What is called IC50 is the point on the concentration scale where inhibition reaches its midpoint. Regarding `COc1ccccc1-c1nccc(COc2ccccc2CC(Oc2ncnc3sc(-c4ccc(F)cc4)c(-c4ccc(OCCN5CCN(C)CC5)c(Cl)c4C)c23)C(=O)OC(C)OC(C)=O)n1` [Example 858, 1-(acetyloxy)ethyl (2R)-2-{[(5Sa)-5-{3-chloro-2-methyl-4-[2-(4-methylpiperazin-1-yl)ethoxy]phenyl}-6-(4-fluorophenyl)thieno[2,3-d]pyrimidin-4-yl]oxy}-3-(2-{[2-(2-methoxyphenyl)pyrimidin-4-yl]methoxy}phenyl)propanoate], the IC50 is 2.11e-07 M.

On to `CCOC(=O)C(Cc1ccccc1OCc1ccnc(-c2ccccc2O)n1)Oc1ncnc2sc(-c3ccc(F)cc3)c(-c3ccc(OCCN4CCNCC4)c(Cl)c3C)c12` [Example 798, ethyl (2R)-2-{[(5Sa)-5-{3-chloro-2-methyl-4-[2-(piperazin-1-yl)ethoxy]phenyl}-6-(4-fluorophenyl)thieno[2,3-d]pyrimidin-4-yl]oxy}-3-(2-{[2-(2-hydroxyphenyl)pyrimidin-4-yl]methoxy}phenyl)propanoate], for which the IC50 came out at 5.15e-06 M.

As for `CCOC(=O)C(Cc1ccccc1OCc1ccnc(-c2ccccc2CO)n1)Oc1ncnc2sc(-c3ccc(F)cc3)c(-c3ccc(OCCN4CCN(C)CC4)c(Cl)c3C)c12` [Example 856, ethyl (2R)-2-{[(5Sa)-5-{3-chloro-2-methyl-4-[2-(4-methylpiperazin-1-yl)ethoxy]phenyl}-6-(4-fluorophenyl)thieno[2,3-d]pyrimidin-4-yl]oxy}-3-[2-({2-[2-(hydroxymethyl)phenyl]pyrimidin-4-yl}methoxy)phenyl]propanoate], the IC50 came to 9.79e-07 M.

Turning to `Cc1c(-c2c(-c3cccc(F)c3F)sc3ncnc(OC(Cc4ccccc4OCc4ccnn4C(C)(C)C)C(=O)OCC(=O)N(C)C)c23)ccc(OCCN(C)C)c1Cl` [Example 825, 2-(dimethylamino)-2-oxoethyl (2R)-3-{2-[(1-tert-butyl-1H-pyrazol-5-yl)methoxy]phenyl}-2-{[(5Sa)-5-{3-chloro-4-[2-(dimethylamino)ethoxy]-2-methylphenyl}-6-(2,3-difluorophenyl)thieno[2,3-d]pyrimidin-4-yl]oxy}propanoate], the IC50 was determined as 5.82e-07 M.

Still in this assay, the particulars now being: fluorescence polarisation test; Method 2 values are underlined in the patent (underlining not visible here); read-out: IC50 (M) Mcl-1 FP.
For the compound `Cc1c(-c2c(-c3ccco3)sc3ncnc(OC(Cc4ccccc4CN)C(=O)O)c23)ccc(OCCN2CCN(C)CC2)c1Cl` [Example 355, (2R)-3-[2-(aminomethyl)phenyl]-2-{[(5Sa)-5-{3-chloro-2-methyl-4-[2-(4-methylpiperazin-1-yl)ethoxy]phenyl}-6-(furan-2-yl)thieno[2,3-d]pyrimidin-4-yl]oxy}propanoic acid], the IC50 was 3e-08 M.

Take `COc1ccccc1CC(Oc1ncnc2sc(-c3ccc(F)cc3)c(-c3ccc(OCCN4CCN(C)CC4)c(Cl)c3C)c12)C(=O)O` [Example 1, (2R)-2-{[(5Sa)-5-{3-chloro-2-methyl-4-[2-(4-methylpiperazin-1-yl)ethoxy]phenyl}-6-(4-fluorophenyl)thieno[2,3-d]pyrimidin-4-yl]oxy}-3-(2-methoxyphenyl)propanoic acid]: the half-maximal inhibitory concentration (IC50) amounted to 8e-08 M.

Turning to `Cc1c(-c2c(-c3ccc(F)o3)sc3ncnc(OC(Cc4ccccc4OCc4ccnc(N5CCOCC5)n4)C(=O)O)c23)ccc(OCCN2CCN(C)CC2)c1Cl` [Example 175, (2R)-2-{[(5Sa)-5-{3-chloro-2-methyl-4-[2-(4-methylpiperazin-1-yl)ethoxy]phenyl}-6-(5-fluorofuran-2-yl)thieno[2,3-d]pyrimidin-4-yl]oxy}-3-(2-{[2-(morpholin-4-yl)pyrimidin-4-yl]methoxy}phenyl)propanoic acid], the IC50 is 3.9e-09 M.

`COCCc1nccc(COc2ccccc2CC(Oc2ncnc3sc(-c4ccc(F)o4)c(-c4ccc(OCCN5CCN(C)CC5)c(Cl)c4C)c23)C(=O)O)n1` [Example 174, (2R)-2-{[(5Sa)-5-{3-chloro-2-methyl-4-[2-(4-methylpiperazin-1-yl)ethoxy]phenyl}-6-(5-fluorofuran-2-yl)thieno[2,3-d]pyrimidin-4-yl]oxy}-3-(2-{[2-(2-methoxyethyl)pyrimidin-4-yl]methoxy}phenyl)propanoic acid]: the IC50 was determined as 2.3e-09 M.

Still in this assay, the particulars now being: fluorescence polarisation; Method 1, or Method 2; read-out: IC50 (M) Mcl-1 FP.
Regarding `C=C(C)c1sc2ncnc(O[C@H](Cc3ccccc3)C(=O)O)c2c1-c1cccc(Cl)c1C` (single isomer, unassigned) [Example 719], the half-inhibitory concentration (IC50) was 2.7e-06 M.

Regarding `CCc1sc2ncnc(OC(Cc3ccccc3)C(=O)O)c2c1-c1ccc(OCc2ccncc2)c(Cl)c1C` [Example 395, (2R)-2-({(5Sa)-5-[3-chloro-2-methyl-4-(pyridin-4-ylmethoxy)phenyl]-6-ethylthieno[2,3-d]pyrimidin-4-yl}oxy)-3-phenylpropanoic acid], the IC50 is 1.6e-08 M.

In the case of `COc1ccccc1CC(Oc1ncnc2sc(-c3cccc(F)c3)c(-c3ccc(OCCN4CCN(C)CC4)c(Cl)c3C)c12)C(=O)O` [Example 551, (2R)-2-{[(5Sa)-5-{3-chloro-2-methyl-4-[2-(4-methylpiperazin-1-yl)ethoxy]phenyl}-6-(3-fluorophenyl)thieno[2,3-d]pyrimidin-4-yl]oxy}-3-(2-methoxyphenyl)propanoic acid], the IC50 came out at 2.8e-08 M.

For the compound `CCc1sc2ncnc(OC(Cc3ccccc3OC)C(=O)O)c2c1-c1ccc(O)c(Cl)c1C` (single isomer, unassigned) [Example 681], the IC50 was 6.7e-09 M.

Take `CCc1sc2ncnc(OC(Cc3ccccc3)C(=O)O)c2c1-c1cccc(Cl)c1C` [Example 451, (2R)-2-{[(5Ra)-5-(3-chloro-2-methylphenyl)-6-ethylthieno[2,3-d]pyrimidin-4-yl]oxy}-3-phenylpropanoic acid]: the IC50 came to 5.8e-07 M.

Consider `Cc1c(-c2c(-c3ccc(OCc4ccn(C)n4)cc3)sc3ncnc(OC(Cc4ccccc4OCC(F)(F)F)C(=O)O)c23)ccc(OCCN2CCN(C)CC2)c1Cl` [Example 780, (2R)-2-[((5Sa)-5-{3-chloro-2-methyl-4-[2-(4-methylpiperazin-1-yl)ethoxy]phenyl}-6-{4-[(1-methyl-1H-pyrazol-3-yl)methoxy]phenyl}thieno[2,3-d]pyrimidin-4-yl)oxy]-3-[2-(2,2,2-trifluoroethoxy)phenyl]propanoic acid], for which the half-maximal inhibitory concentration (IC50) was 7.26e-09 M.

For `C=Cc1sc2ncnc(OC(Cc3ccccc3)C(=O)O)c2c1-c1cccc(Cl)c1C` [Example 721, (2R)-2-{[(5Sa)-5-(3-chloro-2-methylphenyl)-6-ethenylthieno[2,3-d]pyrimidin-4-yl]oxy}-3-phenylpropanoic acid], the IC50 turned out to be 7.6e-08 M.

Consider `C=C(C)c1sc2ncnc(O[C@H](Cc3ccccc3)C(=O)O)c2c1-c1cccc(Cl)c1C` (single isomer, unassigned) [Example 720], for which the IC50 was 4.4e-08 M.

For `CCc1sc2ncnc(OC(Cc3ccccc3)C(=O)O)c2c1-c1cc2nc(C)oc2c(Cl)c1C` [Example 444, (2R)-2-{[(5Sa)-5-(7-chloro-2,6-dimethyl-1,3-benzoxazol-5-yl)-6-ethylthieno[2,3-d]pyrimidin-4-yl]oxy}-3-phenylpropanoic acid], the IC50 amounted to 1.2e-08 M.

For `Cc1c(Cl)cccc1-c1c(-c2ccco2)sc2ncnc(OC(Cc3ccccc3OCCN3CCN(C)CC3)C(=O)O)c12` [Example 667, (2S)-2-{[(5Ra)-5-(3-chloro-2-methylphenyl)-6-(furan-2-yl)thieno[2,3-d]pyrimidin-4-yl]oxy}-3-{2-[2-(4-methylpiperazin-1-yl)ethoxy]phenyl}propanoic acid], the IC50 stood at 2.1e-06 M.

The same assay, now with this note: partial inhibitors; @ 10 uM test compound.
Take `CCOC(=O)[C@@H](Cc1ccccc1OCc1cnccn1)Oc1ncnc2sc(-c3ccc(F)cc3)c(-c3ccc(OCCN4CCOCC4)c(Cl)c3C)c12` [Example 632, ethyl (2R)-2-{[(5Sa)-5-{3-chloro-2-methyl-4-[2-(morpholin-4-yl)ethoxy]phenyl}-6-(4-fluorophenyl)thieno[2,3-d]pyrimidin-4-yl]oxy}-3-[2-(pyrazin-2-ylmethoxy)phenyl]propanoate]: the “percentage fluorescence polarisation inhibition, Mcl-1 FP” value was 41.8% @ 10 uM.

For `CCOC(=O)[C@@H](Cc1ccccc1OCc1ccnn1C(C)C)Oc1ncnc2sc(-c3ccc(F)cc3)c(-c3ccc(OCCN4CCN(C)CC4)c(Cl)c3C)c12` [Example 624, ethyl (2R)-2-{[(5Sa)-5-{3-chloro-2-methyl-4-[2-(4-methylpiperazin-1-yl)ethoxy]phenyl}-6-(4-fluorophenyl)thieno[2,3-d]pyrimidin-4-yl]oxy}-3-(2-{[1-(propan-2-yl)-1H-pyrazol-5-yl]methoxy}phenyl)propanoate], the “percentage fluorescence polarisation inhibition, Mcl-1 FP” value was 26.95% @ 10 uM.

Regarding `CCc1sc2ncnc(O[C@H](Cc3ccccc3)C(=O)O)c2c1-c1ccc(OCCN2CCOCC2)c(Cl)c1C` [Example 421, (2R)-2-[((5Ra)-5-{3-chloro-2-methyl-4-[2-(morpholin-4-yl)ethoxy]phenyl}-6-ethylthieno[2,3-d]pyrimidin-4-yl)oxy]-3-phenylpropanoic acid], the “percentage fluorescence polarisation inhibition, Mcl-1 FP” value is on record as 38.1% @ 10 uM.

`CCOC(=O)[C@@H](Cc1ccccc1OCc1cnccn1)Oc1ncnc2sc(-c3ccc(F)cc3)c(-c3ccc(OCCN4CCN(C)CC4)c(Cl)c3C)c12` [Example 631, ethyl (2R)-2-{[(5Sa)-5-{3-chloro-2-methyl-4-[2-(4-methylpiperazin-1-yl)ethoxy]phenyl}-6-(4-fluorophenyl)thieno[2,3-d]pyrimidin-4-yl]oxy}-3-[2-(pyrazin-2-ylmethoxy)phenyl]propanoate]: the “percentage fluorescence polarisation inhibition, Mcl-1 FP” value is listed as 56% @ 10 uM.

Staying with this assay, now noted: test compound at 10 uM; Method 1, or Method 2 where the value is underlined (underlining not visible).
Consider `COc1ccccc1-c1nccc(COc2ccccc2C[C@@H](Oc2ncnc3sc(-c4ccc(F)cc4)c(-c4ccc(OC)c(Cl)c4C)c23)C(=O)OCC(=O)N(C)C)n1` [Example 848, 2-(dimethylamino)-2-oxoethyl (2R)-2-{[(5Sa)-5-(3-chloro-4-methoxy-2-methylphenyl)-6-(4-fluorophenyl)thieno[2,3-d]pyrimidin-4-yl]oxy}-3-(2-{[2-(2-methoxyphenyl)pyrimidin-4-yl]methoxy}phenyl)propanoate], for which the “percentage fluorescence polarisation inhibition (Mcl-1 FP), partial inhibitors” value was found to be 46.7% @ 10 uM.

Source of the values: US9670227B2, “Thienopyrimidine derivatives, a process for their preparation and pharmaceutical compositions containing them” (LES LABORATOIRES SERVIER, priority 2013, dated 2017).
